Laboratory results reported in patent publication US20040072183A1, “Adhesive protein and uses thereof” (priority 2000, published 2004).

Experiments:
[1] = system: spiggin mRNA; experiment: Hormone implant dose response analysis of spiggin mRNA in kidney (slot blot, FIG. 3); format: in vivo, three-spined stickleback (Gasterosteus aculeatus); conditions: hormone in silastic capsule implanted in abdominal cavity, one month exposure
Method: Hormones at different concentrations were dissolved in […] of coconut oil and placed within silastic capsules (Dow Corning, internal diameter 0.6 mm, outer diameter 1.2 mm, length 5 mm). The sealed capsules were implanted into the abdominal cavity of each fish which were subsequently placed in aquaria containing 200 l of brackish water (0.5% salinity) at 17° C. under a stimulatory photoperiod of L:D 16:8. Following one month exposure the fish were sacrificed and the required organs removed by dissection and stored at −70° C.
[…] total RNA was combined with 90 ml of 20×SSC and 60 ml 37% formaldehyde. The final volume was adjusted to 300 ml with MQ water. Each preparation was transferred onto nylon membrane (Amersham Pharmacia Biotech) using a Minifold II Slot Blot apparatus (Schleicher & Schuell). The RNA was bound onto the membrane by cross-linking in a CL-1000 UV apparatus (UVP). Membranes were radioactively probed as described below (Paragraph 10) and the relative levels of mRNA were determined using a GS-250 Molecular Phosphoimager coupled to the Molecular Analyst (Version 1:41) package (Bio Rad). All dose-response determinations were performed in triplicate and the results were expressed as the mean (±SD) for each hormone and dose assayed. […]

[2] = system: spiggin; conditions: 11-KT treatment; cited from earlier work
[3] = system: spiggin mRNA; experiment: Methyltestosterone induction of spiggin mRNA via water in juvenile fish (slot blot, FIG. 5); format: in vivo, three spined stickleback; conditions: exposure via water, 10 days, whole fish homogenate
Method: Juvenile three spined sticklebacks, with a body weight of approximately 100 mg, were exposed to different doses (100 pM, 10 nM and 1 uM) of methyltestosterone or to a combination of 10 nM methyltestosterone and 10 uM flutamide (an antiandrogen). After 10 days the fish were sacrificed. Whole fish were homogenized and spiggin mRNA levels were determined using slot blot analysis.

Compound | Inducibility of spiggin expression in kidney [1] | Inducibility of spiggin production [2] | Methyltestosterone concentration effective at inducing spiggin mRNA [3]
C[C@]12CC(=O)[C@H]3[C@@H](CCC4=CC(=O)CC[C@@]43C)[C@@H]1CC[C@@H]2O [11-ketotestosterone] | inducible | inducible | 
C[C@]12CCC(=O)C=C1CC[C@@H]1[C@@H]2CC[C@@]2(C)[C@H]1CC[C@]2(C)O [methyltestosterone] |  |  | ≥ 100 pM
